In patent US11219603B2, “Stable dosage form of etidronate-cytarabine conjugate, and use thereof” (MAXWELL BIOTECH GROUP LTD., priority 2015, dated 2022):

Tests used:
Format in all cases: physicochemical
[1] = Effect of MgCl2 on hydrolysis of MBC-11 in solution (formation of Ara-CMP at 25° C.); conditions: for Content of Ara-CMP (%): Water, 25° C.
Description: Studies were performed, where magnesium chloride was investigated as a stabilizer against hydrolytic decomposition. MgCl2 was added to solutions of MBC-11 conjugate in water, tartrate buffer (50 mmol/L, pH 5) and succinate buffer (50 mmol/L, pH 5). The following molar ratios of MgCl2 to MBC-11 were used: (1:2), (1:1), (2:1) and higher (˜12:1). […]

[2] = Hydrolysis rate constant with MgCl2 or CaCl2 as stabilizer; conditions: for hydrolysis rate constant (K): in water
From the text: The use of calcium chloride as a stabilizer against hydrolytic decomposition in both buffer solutions and water was also investigated; the hydrolysis rate constant was compared with the constant for MgCl2. […] If molar ratios were less than 2:1, the hydrolysis rate was lower for solutions containing MgCl2.

[3] = Thermal behaviour of solutions for lyophilization (DSC); conditions: for Thermal effect (event), in words: wrapped cell reads 'Tgt/endothermicity before alloy expansion'
From the text: The thermal properties of the solutions provided for lyophilization were investigated. Differential Scanning calorimetry (DSC) was used to identify the lowest possible transient temperature in the solution throughout the entire lyophilization process, including freezing and dehydration. For the solutions of most pharmaceutical products, this parameter is represented by the glass transition temperature or “Tgt”. All components and their amounts in the solution contribute to the final value of Tgt. This temperature is usually several degrees below the temperature at which the sintered material can crumble during the lyophilization process (collapse temperature, Tc). Without determining the collapse temperature by such methods as cryomicroscopy, the glass transition temperature can be used to select the primary drying temperature. Until the primary drying is completed, the initial drying temperature should be set in such a manner that there are no vials for which the glass transition temperature has been exceeded (or Tc, if known). Otherwise, the structure of the sintered material may get broken. On the one hand, the lyophilization temperature should be close to Tgt, so that the process proceeds efficiently, and on the other hand, it cannot exceed Tgt due to process requirements and qualitative product parameters. Thus, the values of collapse and glass transition temperature are important parameters for calculating safe upper temperature limits, which can be used for lyophilization.
Based on the proposed filling of the vials with the drug (100 mg of active ingredient per vial), potential solutions for filling were prepared. The excipients included sterile water for injection (SWFI), 50 mM succinate and tartrate buffers at pH 5, MgCl2, sulfobutylether β-cyclodextrin (SBEβCD), mannitol and dextran 40. In addition, for solutions containing mannitol, a study of the effect of the annealing stage (the lyophilization process stage when the samples are kept at a certain temperature below the freezing point for a certain period of time) on the improvement the crystallinity of the finished product was performed. […]

[4] = Physical and hydrolytic stability of reconstituted lyophilizates in intravenous media; conditions: reconstituted lyophilizate, low dose in D5W, 25° C., 6 hours
Description: The lyophilized dosage form was evaluated for compatibility with three different media for intravenous administration within 24 hours: sterile water for injection (SWFI), D5W and 0.9% sodium chloride solution. […] The lyophilized dosage form was first dissolved in 5 mL SWFI to the MBC-11 trisodium salt concentration of 20 mg/mL, and then it was placed in glass vials and diluted with each medium for intravenous administration until the infusion doses under study were obtained. The solutions thus obtained were kept at 2-8° C. and 25° C. for 24 hours, and the evaluation of the samples in appearance, content and purity at the points t=0, 2, 4, 6 and 24 hours was performed.
At each control point, solutions for intravenous administration with a high dosage were evaluated in appearance, after which they were diluted to a nominal analytical concentration of 1 mg/mL with a solvent used in the analytical method for evaluating the substance purity. The samples thus obtained were used to determine the purity and content of the active pharmaceutical ingredient.

[5] = SWFI, MBC-11 25 mg/mL, MgCl2 43.25 mmol/L, Mannitol 25 mg/mL, Annealing at −20° C.
[6] = SWFI, MBC-11 25 mg/mL, MgCl2 43.25 mmol/L, Mannitol 25 mg/mL, Annealing at −24° C.
[7] = SWFI, MBC-11 25 mg/mL, MgCl2 43.25 mmol/L, pH 4.59
[8] = SWFI, MBC-11 50 mg/mL, MgCl2 86.5 mmol/L, pH 4.52
[9] = Succinate buffer, MBC-11 25 mg/mL, MgCl2 86.5 mmol/L, pH 4.52
[10] = Tartrate buffer, MBC-11 25 mg/mL, MgCl2 86.5 mmol/L, pH 4.48

CC(O)(P(=O)(O)O)P(=O)(O)OP(=O)(O)OC[C@H]1O[C@@H](n2ccc(N)nc2=O)[C@@H](O)[C@@H]1O (some centres unmarked) [MBC-11]
Content of Ara-CMP (%) ([1]; MgCl2 1.73 mmol/L, MgCl2:MBC-11 1:1, t = 24 h): 4.6%
Content of Ara-CMP (%) ([1]; MgCl2 3.5 mmol/L, MgCl2:MBC-11 2:1, t = 0 h): 2.7%
Content of Ara-CMP (%) ([1]; MgCl2 3.5 mmol/L, MgCl2:MBC-11 2:1, t = 4 h): 2.7%
Content of Ara-CMP (%) ([1]; MgCl2 3.5 mmol/L, MgCl2:MBC-11 2:1, t = 8 h): 2.9%
Content of Ara-CMP (%) ([1]; MgCl2 3.5 mmol/L, MgCl2:MBC-11 2:1, t = 24 h): 3.7%
Content of Ara-CMP (%) ([1]; MgCl2 20 mmol/L, MgCl2:MBC-11 ~12:1, t = 0 h): 2.6%
Content of Ara-CMP (%) ([1]; MgCl2 20 mmol/L, MgCl2:MBC-11 ~12:1, t = 4 h): 2.7%
Content of Ara-CMP (%) ([1]; MgCl2 20 mmol/L, MgCl2:MBC-11 ~12:1, t = 8 h): 2.9%
Content of Ara-CMP (%) ([1]; MgCl2 20 mmol/L, MgCl2:MBC-11 ~12:1, t = 24 h): 3.5%
increase in Ara-CMP content ([1]; previous observations (before addition of MgCl2), 8 hours at 25° C.): ~2%
slowdown in the hydrolysis reaction ([2]; divalent metal salts added to aqueous solution in molar ratio 2:1): 90%
hydrolysis rate constant (K) ([2]; molar ratio CaCl2 to MBC-11 2:1): 0.0005
hydrolysis rate constant (K) ([2]; molar ratio MgCl2 to MBC-11 2:1): 0.0005
Thermal effect (event): Tgt ([3]; SWFI, MBC-11 25 mg/mL, MgCl2 43.25 mmol/L, Dextran-40 5%): −21 °C (Tgt)
Thermal effect (event): possible crystallization ([3]; SWFI, MBC-11 25 mg/mL, MgCl2 43.25 mmol/L, Mannitol 25 mg/mL): at −27 °C
Thermal effect (event): crystallization after temperature processing [3, 5]: None
Thermal effect (event): specific endothermicity [3, 5]: −22 °C
Thermal effect (event): crystallization after annealing [3, 6]: None
Thermal effect (event): weak endothermicity [3, 6]: −22 °C
Thermal effect (event): Tgt [3, 7]: −22 °C (Tgt)
Thermal effect (event): endotherm [3, 7]: −21 °C
Thermal effect (event): Tgt ([3]; SWFI, MBC-11 25 mg/mL, MgCl2 86.5 mmol/L, Dextran-40 5%): −27 °C (Tgt)
Thermal effect (event), in words ([3]; SWFI, MBC-11 25 mg/mL, MgCl2 86.5 mmol/L, Mannitol 25 mg/mL): Tgt/endothermicity
Thermal effect (event): endothermicity ([3]; SWFI, MBC-11 25 mg/mL, MgCl2 86.5 mmol/L, pH 4.35): −26 °C
Thermal effect (event): Tgt ([3]; SWFI, MBC-11 50 mg/mL, 20% SBEβCD): −26 °C (Tgt)
Thermal effect (event): Tgt ([3]; SWFI, MBC-11 50 mg/mL, MgCl2 86.5 mmol/L, Dextran-40 5%): −24 °C (Tgt)
Thermal effect (event), in words ([3]; SWFI, MBC-11 50 mg/mL, MgCl2 86.5 mmol/L, Mannitol 25 mg/mL): Tgt/endothermicity
Thermal effect (event): Tgt [3, 8]: −34 °C (Tgt)
Thermal effect (event): endothermicity [3, 8]: −21 °C
Thermal effect (event): Tgt ([3]; SWFI, MBC-11 50 mg/mL, MgCl2 173 mmol/L, Dextran-40 5%): −36 °C (Tgt)
Thermal effect (event), in words ([3]; SWFI, MBC-11 50 mg/mL, MgCl2 173 mmol/L, Mannitol 25 mg/mL): Tgt/endothermicity
Thermal effect (event): endothermicity ([3]; SWFI, MBC-11 50 mg/mL, MgCl2 173 mmol/L, pH 4.23): −26 °C
Thermal effect (event): Tgt ([3]; SWFI, MBC-11 50 mg/mL, no excipient, pH 5.2): −21 °C (Tgt)
Thermal effect (event): endothermicity ([3]; SWFI, MBC-11 100 mg/mL, MgCl2 173 mmol/L): −22 °C
Thermal effect (event): Tgt ([3]; SWFI, MBC-11 100 mg/mL, MgCl2 173 mmol/L, Dextran-40 5%): −29 °C (Tgt)
Thermal effect (event): endothermicity ([3]; SWFI, MBC-11 100 mg/mL, MgCl2 350 mmol/L): −26 °C
Thermal effect (event): Tgt ([3]; SWFI, MBC-11 100 mg/mL, no excipient, pH 5.4): −21 °C (Tgt)
Thermal effect (event): Tgt ([3]; Succinate buffer, MBC-11 25 mg/mL, MgCl2 86.5 mmol/L, Dextran-40 5%): −30 °C (Tgt)
Thermal effect (event), in words ([3]; Succinate buffer, MBC-11 25 mg/mL, MgCl2 86.5 mmol/L, Mannitol 25 mg/mL): Tgt/endothermicity
Thermal effect (event): crystallization [3, 9]: −34 °C
Thermal effect (event): endothermicity [3, 9]: −26 °C
Thermal effect (event): Tgt ([3]; Tartrate buffer, MBC-11 25 mg/mL, MgCl2 86.5 mmol/L, Dextran-40 5%): −26 °C (Tgt)
Thermal effect (event): Tgt ([3]; Tartrate buffer, MBC-11 25 mg/mL, MgCl2 86.5 mmol/L, Mannitol 25 mg/mL): −40 °C (Tgt)
Thermal effect (event): Tgt [3, 10]: −40 °C (Tgt)
Thermal effect (event): crystallization [3, 10]: −30 °C
Thermal effect (event): endothermicity [3, 10]: −22 °C
increase in the Ara-CMP content [4]: 0.5%
